Values of other authors in publication PMC5861163 (European Journal of Nutrition, 2017).

System: human faecal microbiota
Parameters: method as in PMID 26471074
Conditions: after 24 h of fermentation in vitro

Molecule	degraded by the human faecal microbiota [%]
demethoxycurcumin	≤ 61
O=C(/C=C/c1ccc(O)cc1)CC(=O)/C=C/c1ccc(O)cc1 [bisdemethoxycurcumin]	≤ 87
